In paper PMC7515950, “Physiologically based pharmacokinetic modeling to assess metabolic drug–drug interaction risks and inform the drug label for fedratinib” (Cancer Chemotherapy and Pharmacology, 2020):
Where “and” joins values, the source holds several entries; their conditions need not be identical. Equal entries are not always repeated.

Tests used:
OCT2 = molecular target: T1, OCT2 (Homo sapiens, UniProt O15244); experiment: OCT2 inhibition, CHO-hOCT2 cells (TRI0013); type: in vitro ADME; parameters: expressed in transfected cells; host or cells: CHO^Fi-hOCT2
T1 sequence (O15244 1-555): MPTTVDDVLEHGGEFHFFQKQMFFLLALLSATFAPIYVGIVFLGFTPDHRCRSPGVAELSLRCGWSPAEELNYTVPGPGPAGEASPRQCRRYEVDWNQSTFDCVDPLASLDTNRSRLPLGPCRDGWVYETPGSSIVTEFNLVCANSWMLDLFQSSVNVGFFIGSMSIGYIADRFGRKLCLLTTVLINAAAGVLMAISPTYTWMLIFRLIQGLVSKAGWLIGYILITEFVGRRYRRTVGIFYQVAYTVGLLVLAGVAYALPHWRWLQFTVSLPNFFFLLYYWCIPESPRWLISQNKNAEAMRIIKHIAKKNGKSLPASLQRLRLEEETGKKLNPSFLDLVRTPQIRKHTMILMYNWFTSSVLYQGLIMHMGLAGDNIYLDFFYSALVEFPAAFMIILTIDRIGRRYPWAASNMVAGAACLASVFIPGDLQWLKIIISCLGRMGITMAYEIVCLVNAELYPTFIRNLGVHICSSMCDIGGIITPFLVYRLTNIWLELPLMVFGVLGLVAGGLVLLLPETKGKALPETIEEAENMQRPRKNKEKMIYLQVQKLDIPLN
Excerpt: (§1) The reported IC50 values were converted to Ki values using the Cheng-Prusoff equation [10]:
(§2) The transporter inhibition parameters (Ki) for fedratinib were derived from the experimentally determined IC50 values using the Cheng-Prusoff equation, i.e., Ki = IC50/(1+[S]/Km) with the substrate concentrations ([S]) reported in the experimental studies and the substrate Km values collected from literature, as summarized in Table 13.

P-gp = P-gp (Homo sapiens, UniProt P08183); experiment: P-gp interaction in Caco-2/TC7 (Study AIV0208); type: in vitro ADME; parameters: endogenous in cells; host or cells: Caco-2/TC7
Sequence of P-gp (P08183 whole entry): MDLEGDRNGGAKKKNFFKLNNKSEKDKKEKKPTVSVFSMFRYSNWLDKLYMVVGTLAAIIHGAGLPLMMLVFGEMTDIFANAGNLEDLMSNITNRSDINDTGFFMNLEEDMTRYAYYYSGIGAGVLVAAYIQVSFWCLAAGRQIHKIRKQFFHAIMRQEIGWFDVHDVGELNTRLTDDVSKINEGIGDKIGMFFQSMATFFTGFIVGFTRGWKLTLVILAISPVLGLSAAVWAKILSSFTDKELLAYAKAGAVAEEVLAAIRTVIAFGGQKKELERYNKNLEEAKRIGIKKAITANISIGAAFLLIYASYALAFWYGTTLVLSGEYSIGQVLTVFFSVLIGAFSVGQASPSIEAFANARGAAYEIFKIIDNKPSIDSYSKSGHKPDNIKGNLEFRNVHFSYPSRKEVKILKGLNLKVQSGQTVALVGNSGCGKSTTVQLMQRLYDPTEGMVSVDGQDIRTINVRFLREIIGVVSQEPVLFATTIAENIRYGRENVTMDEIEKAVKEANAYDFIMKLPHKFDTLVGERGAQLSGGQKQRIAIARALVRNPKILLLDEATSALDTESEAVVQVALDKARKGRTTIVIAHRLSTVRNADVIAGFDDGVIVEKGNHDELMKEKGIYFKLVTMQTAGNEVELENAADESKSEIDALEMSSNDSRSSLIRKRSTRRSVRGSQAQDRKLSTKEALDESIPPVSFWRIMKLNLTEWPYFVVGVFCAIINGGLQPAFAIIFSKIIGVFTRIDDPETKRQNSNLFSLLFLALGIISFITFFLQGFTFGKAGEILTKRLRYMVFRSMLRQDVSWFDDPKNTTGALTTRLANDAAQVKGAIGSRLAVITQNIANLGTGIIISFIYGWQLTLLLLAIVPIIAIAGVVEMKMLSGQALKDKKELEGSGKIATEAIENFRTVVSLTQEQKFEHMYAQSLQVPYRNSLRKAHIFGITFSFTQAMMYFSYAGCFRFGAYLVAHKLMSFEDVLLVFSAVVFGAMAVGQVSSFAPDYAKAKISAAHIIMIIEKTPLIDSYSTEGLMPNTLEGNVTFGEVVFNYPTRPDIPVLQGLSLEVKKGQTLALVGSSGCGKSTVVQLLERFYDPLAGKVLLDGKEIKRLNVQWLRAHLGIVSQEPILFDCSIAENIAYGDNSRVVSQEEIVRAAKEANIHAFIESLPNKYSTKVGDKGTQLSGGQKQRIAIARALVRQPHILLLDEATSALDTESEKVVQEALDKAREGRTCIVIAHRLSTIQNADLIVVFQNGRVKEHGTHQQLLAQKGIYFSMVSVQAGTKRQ
Excerpt: as §1, §2

[1] = PBPK parameter estimation in Simcyp (retrograde modeling, QGut, Peff, F, Fg, CLAdd); parameters: species or system human; conditions: for CLint,CYP2C19 / CLint,CYP2D6 / CLint,CYP3A4: retrograde modeling, healthy subjects
Excerpt: Using the retrograde modeling tool provided within Simcyp®, the intrinsic enzyme clearance (CLint) values were optimized by minimizing the differences between the model-predicted and clinically observed dose-normalized AUCinf (see Supplemental Material SM2—Metabolism Parameters), with the fractions of metabolism of CYP3A4 (fmCYP3A4) and additional hepatic enzymes (fmHLM,add) refined by the parameter sensitivity analysis on accumulation ratio for repeated-dose clinical studies (see Supplemental Material SM8). The renal clearance (CLR) and additional systemic clearance (CLadd) were provided as input parameters estimated from the clinical data (see Supplemental Material SM2—Excretion Parameters). The PBPK distribution parameters (including Vss, Vsac, and Q) were directly derived from the compartmental modeling of plasma PK data obtained from healthy subjects administered 500 mg fedratinib single doses, and then provided as input parameters without further modifications (see Supplemental Material SM2—Distribution Parameters).
By default, the QGut is set to be the mean value (i.e., 6.5 L/h) in the PBPK model of fedratinib.
As CYP3A4 is the dominant form of CYP3A in the liver, all metabolic contribution from CYP3A was assigned to CYP3A4 in this PBPK model. The default “Healthy Volunteers” population was used for the retrograde modeling. […] The Fg value required for retrograde modeling was initially set as default 1 and then adjusted to ~0.8 based on model prediction. […] The clearance values derived above for fedratinib in healthy subjects were assumed to be the same for cancer patients including myelofibrosis (MF) patients and patients with refractory solid tumors.
The biliary excretion of unchanged drug accounts for 2.3% of the total intravenous dose in bile-duct cannulated (BDC) rats.

Ki (OCT2; from IC50 by Cheng-Prusoff, probe metformin): 0.71 µM | IC50 (OCT2; probe metformin 25 μM): 0.78 µM | P-gp substrate in vitro (P-gp): substrate | Ki (P-gp; from IC50 by Cheng-Prusoff, probe digoxin): 10 µM | IC50 (P-gp; probe digoxin 5 μM): 10.1 µM | clearance ([1]; human, oral, read-out: CLAdd (additional systemic clearance) (converted)): ~11.2 mL/min | biliary excretion percentage assumed in humans ([1]; oral dose, assumed from rat data): ~ 2% | CLint,CYP2C19 [1]: 1.25 mL/min/pmol of isoform | CLint,CYP2D6 [1]: 0.258 mL/min/pmol of isoform | CLint,CYP3A4 [1]: 0.610 mL/min/pmol of isoform | CLint,CYP2D6 ([1]; listed as fedratinib): 0.258 μL/min/pmol of isoform | CLint,CYP3A4 ([1]; listed as fedratinib): 0.610 μL/min/pmol of isoform | CLpo used for retrograde calculation ([1]; updated so that predicted dose-normalized AUC agrees with observation): 48 L/h
Structure (SMILES): Cc1cnc(Nc2ccc(OCCN3CCCC3)cc2)nc1Nc1cccc(S(=O)(=O)NC(C)(C)C)c1 [Fedratinib]
CLint,CYP2C19 ([1]; listed as fedratinib): 1.25 μL/min/pmol of isoform and 1.253 μL/min/pmol of isoform
